In US20090186111A1, “Novel Bacteria and Pharmaceutically Active Products Obtained Therefrom” (priority 2004, published 2009):

The compounds below were run on S. aureus LSLT1111 (assay: Antibiogram of S. aureus LSLT1111).

Compound	Diameter of clear area	Sensitivity to antibiotic
CC1(C)S[C@@H]2[C@H](NC(=O)[C@H](N)c3ccccc3)C(=O)N2[C@H]1C(=O)O [Ampicillin]	12.6 mm	Resistant
CN(C)[C@@H]1C(=O)C(C(N)=O)=C(O)[C@@]2(O)C(=O)C3=C(O)c4c(O)cccc4[C@@](C)(O)[C@H]3C[C@@H]12 [Tetracyclin]	19.8 mm	Sensitive
O=C(N[C@H](CO)[C@H](O)c1ccc([N+](=O)[O-])cc1)C(Cl)Cl [Chloramphenicol]	18.6 mm	Sensitive
Gentamicin	16.6 mm	Sensitive
CN[C@H](CC(C)C)C(=O)N[C@H]1C(=O)N[C@@H](CC(N)=O)C(=O)N[C@H]2C(=O)N[C@H]3C(=O)N[C@H](C(=O)N[C@H](C(=O)O)c4cc(O)cc(O)c4-c4cc3ccc4O)[C@H](O)c3ccc(c(Cl)c3)Oc3cc2cc(c3O[C@@H]2O[C@H](CO)[C@@H](O)[C@H](O)[C@H]2O[C@H]2C[C@](C)(N)[C@H](O)[C@H](C)O2)Oc2ccc(cc2Cl)[C@H]1O [Vancomycin]	11.9 mm	Sensitive
Amox. Clav. ac	28.0 mm	Sensitive
Neomycin	14.7 mm	Resistant/Sensitive
CC[C@H]1OC(=O)[C@H](C)[C@@H](O[C@H]2C[C@@](C)(OC)[C@@H](O)[C@H](C)O2)[C@H](C)[C@@H](O[C@@H]2O[C@H](C)C[C@H](N(C)C)[C@H]2O)[C@](C)(O)C[C@@H](C)C(=O)[C@H](C)[C@@H](O)[C@]1(C)O [Erythromycin]	17.3 mm	Resistant/Sensitive
COc1cccc(OC)c1C(=O)N[C@@H]1C(=O)N2[C@@H]1SC(C)(C)[C@@H]2C(=O)O [Meticillin]	23.3 mm	Sensitive
Penicillin	9.0 mm	Resistant
Sulpha/trimethoprim	18.8 mm	Sensitive
CC(=O)OCC1=C(C(=O)O)N2C(=O)[C@@H](NC(=O)Cc3cccs3)[C@H]2SC1 [Cephalothin]	28.8 mm	Sensitive
CCC[C@@H]1C[C@@H](C(=O)N[C@@H]([C@H]2O[C@H](SC)[C@H](O)[C@@H](O)[C@H]2O)[C@@H](C)O)N(C)C1 [Lincomycin]	16.7 mm	Resistant/Sensitive
